Results from EPA's ToxValDB 9.5 (doi:10.2903/j.efsa.2009.189r).

Assays:
[1] = test system: Rattus norvegicus; conditions: for LD50: acute, oral, mortality; for NOEL: chronic
[2] = test system: Apis mellifera; conditions: acute; duration: 48 hours; oral; unspecified; mortality
[3] = test system: Anas platyrhynchos; conditions: acute; oral; unspecified; mortality
[4] = test system: Tagia sp.; conditions: acute; duration: 14 days; mortality
[5] = test system: Lepomis macrochirus; conditions: acute; duration: 96 hours; mortality
[6] = test system: Pimephales promelas; conditions: chronic/long-term; duration: 359 days; mortality
[7] = test system: Canidae; conditions: chronic; duration: 1 years; oral; Dog Other; organ weight
[8] = test system: Mus musculus; conditions: acute; oral; mortality
[9] = test system: Folsomia candida; conditions: chronic/long-term
[10] = test system: Colinus virginianus; conditions: for NOEC: reproduction developmental
[11] = test system: Chrysoperla externa; experiment: LR50; higher = less toxic; conditions: not reported; mortality

| SMILES | LD50 [1] [mg/kg-day] | NOEL ([1]; F) [mg/kg-day] | NOEL ([1]; M) [mg/kg-day] | LD50 [2] [µg/piece] | LD50 [3] [mg/kg] | LC50 [4] [mg/kg] | LC50 [5] [µg/mL] | NOEC [6] [mg/L] | NOAEL [7] [mg/kg-day] | LD50 [8] [mg/kg-day] | NOEC [9] [mg/kg] | LC50 ([10]; acute, oral, diet, mortality) [mg/kg-day] | LD50 ([10]; acute, oral, mortality) [mg/kg] | NOEC [10] [mg/kg-day] | NOEC ([10]; duration: 90 days) [mg/kg-day] | LR50 [11] [g/ha] |
| --- | --- | --- | --- | --- | --- | --- | --- | --- | --- | --- | --- | --- | --- | --- | --- | --- |
| NC(=O)c1c(F)cccc1F [Benzamide, 2,6-difluoro-] | 2060 | – | – | – | – | – | – | – | – | – | – | – | – | – | – | – |
| O=C(NC(=O)c1c(F)cccc1F)Nc1cc(Cl)c(OC(F)(F)C(F)C(F)(F)F)cc1Cl (configuration not stated) [Lufenuron] | > 2000 | 10.9 | 8.3 | > 197 | 2000 | > 1000 | > 29 | 0.02 | 1.5 | > 2000 | 0.2 | 966 | 2000 | 19.7 | 20000 | 0.4 |
